Laboratory results reported in patent US7105564B1, “Pharmaceutical composition comprising a dual antagonist against PGD2/TXA2 receptors having a [2.2.1] or [3.1.1] bicyclic skeleton” (Shionogi & Co., Ltd., priority 1999, dated 2006).
Marks after values point to notes of the source that are not given here. Blank lines part the entries; values can stand above or below the compound they belong to.

Legend:
[1] = target: T1, PGD2 receptor (Homo sapiens, UniProt Q13258); assay: Antagonistic activity against PGD2 receptor using human platelet (inhibition of cAMP increase caused by PGD2); assay type: cell-based; conditions: Comparative Experiment 1; read-out: Experiment 3 Antaginistic activity against PGD2 receptor IC50
T1 sequence (Q13258 1-359): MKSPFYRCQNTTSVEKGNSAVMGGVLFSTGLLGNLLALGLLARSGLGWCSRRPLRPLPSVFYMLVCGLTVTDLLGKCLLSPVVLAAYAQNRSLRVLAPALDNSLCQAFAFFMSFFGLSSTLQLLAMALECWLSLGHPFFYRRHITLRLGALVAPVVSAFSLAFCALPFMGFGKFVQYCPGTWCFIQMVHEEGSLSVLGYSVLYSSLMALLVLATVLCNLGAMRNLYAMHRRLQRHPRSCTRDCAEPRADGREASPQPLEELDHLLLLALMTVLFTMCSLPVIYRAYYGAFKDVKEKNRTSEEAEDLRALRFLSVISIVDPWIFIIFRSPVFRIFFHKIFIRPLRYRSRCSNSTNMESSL
Protocol: Experiment 3 Evaluation of Antagonistic Activity Against PGD2 Receptor Using Human Platelet
Peripheral blood was collected from a healthy volunteer using a syringe in which 1/9 volume of a citric acid/dextrose solution was previously added. The sample was subjected to centrifugation at 180 g for 10 min to obtain the supernatant (PRP: platelet rich plasma). The resultant PRP was washed 3 times with a washing buffer and the number of platelets was counted with a micro cell counter. A suspension adjusted to contain the platelets at a final concentration of 5×10^8/ml was warmed at 37° C., then subjected to the pre-treatment with 3-isobutyl-1-methylxanthine (0.5 mM) for 5 min. To the suspension was added a test compound diluted at various concentration, and 10 minutes later, 0.1 μM PGD2 was added to induce the reaction 2 minutes later, hydrochloric acid was added to terminate the reaction. The platelet was destroyed with an ultrasonic homogenizer. After centrifugation, the cAMP in the supernatant was determined by radioimmunoassay. PGD2 receptor antagonism of a drug was evaluated as follows: the inhibition rate regarding cAMP increased by the addition of PGD2 was determined at each concentration, and the concentration of the drug required for 50% inhibition (IC50) was calculated.

[2] = system: Male Hartley guinea pigs; assay: Antigen-induced bronchial hyperresponsiveness; assay type: in vivo, guinea pig; conditions: for Log PD200: acetylcholine dose for 200% increase in bronchoconstriction; for induction of bronchial hyperresponsiveness (in words): summary of Tables 34-36
Protocol: Antigen-induced bronchial hyperresponsiveness
Male Hartley guinea pigs were actively sensitized to ovalbumin (OVA) by inhalation of aerosolized solution of 1% ovalbumin twice at a week interval. One week after the second sensitization, the animals were treated with antihistamine, diphenhydramine (10 mg/kg, i.p.), and then challenged with 1% OVA aerosol for 5 min. Twenty four hours later, acetylcholine at doses at 3.13, 6. 25, 12.5, 25, 50 and 100 micro g/kg was sequentially injected into the animals which were anesthetized with pentobarbital (30 mg/kg, i.p.). The bronchoconstriction induced by each dose of acetylcholine was monitored by the modified method of Konzett-Rössler technique, and made a dose-response curve of acetylcholine. Using the dose-response curve, the dose required for 200% increase in bronchoconstriction from baseline (PD200) was calculated in each animal and used as an indication of bronchial responsiveness. Compounds were orally administered 1 hour before antigen challenge. **: P<0.01 vs Vehicle(Dunnett's test), ##: P<0.01 vs Vehicle(Student's t test).

[3] = system: Male Hartley guinea pigs; assay: Antigen-induced bronchoconstriction; assay type: in vivo, guinea pig; conditions: for antigen-induced bronchoconstriction (in words): summary of Tables 40-42
Protocol: Antigen-induced bronchoconstriction
Male Hartley guinea pigs were passively sensitized by intravenous injection of anti-OVA serum (antibody titer: 1: 3200), and 48 hours later, the animals were challenged by intravenous injection of OVA (70 micro g/kg). The bronchoconstriction induced by antigen was continuously monitored by means of modified method of Konzett-Rössler technique. The peak value of bronchoconstriction in each animal was used for evaluation of compounds. Compound (I-1b) and compound (B-2) were orally administered 1 hour before, compound (A) 2 hours before antigen challenge. The results are shown as follows. *: P<0.05 vs Vehicle, ##: P<0.01 vs Vehicle. ( ): inhibition %.

[4] = system: Male Hartley guinea pigs; assay: Antigen-induced increase in the eosinophil number in bronchoalveolar lavage fluid; assay type: in vivo, guinea pig; conditions: for Eosinophils, inhibition % / Total cells, inhibition % / Cell number, Eosinophils / Cell number, Total cells: 10 mg/kg orally, 1 hour before and 24 and 48 hours after challenge; for Cell number, Eosinophils / Cell number, Total cells: BAL 72 hours; for eosinophil infiltration (in words): summary of Tables 37-39
Protocol: Antigen-induced increase in the eosinophil number in bronchoalveolar lavage fluid.
As described above, the animals were sensitized and challenged with antigen, seventy-two hours later, bronchoalveolar lavage was performed with 10 mL of saline. After the number of total cells in the recovered fluid was counted, smear samples were made. The samples were stained with May Grünward-Giemsa Stain, and differential cell count was performed by counting 500 cells/each sample. The eosinophil number was calculated by the ratio of the number of eosinophils, macrophages, neutrophils and lymphocytes. Compounds were orally administered three times 1 hour before and 24 and 48 hours after the challenge. The results are shown as follows. *: P<0.05, * *: P<0.01 vs Vehicle(Dunnett's test), : P<0. 01 vs Vehicle(Student's t test). ( ): inhibition %.

[5] = target: T1, PGD2 receptor; assay: Binding activity to PGD2 receptor in human platelet membrane fraction ([3H]PGD2); parameters: The platelets were homogenized using a homogenizer (Ultra-Turrax) followed by centrifugation 3 times at 20,000 rpm; from tissue; host or cells: human platelet membrane fraction from blood of healthy volunteers; conditions: Comparative Experiment 1; read-out: Experiment 1 Antaginistic activity against PGD2 receptor IC50
Protocol: Experiment 1 Binding activity to PGD2 Receptor
(1) Preparation of Human Platelet Membrane Fraction
Blood was collected using a plastic syringe containing 3.8% sodium citrate from the vein of healthy volunteers (adult male and female), then put into a plastic test tube and mixed by slow-reversion. The sample was then centrifuged at 1800 rpm, for 10 min at room temperature, and the supernatant containing PRP (platelet-rich plasma) was collected. The PRP was recentrifuged at 2300 rpm, for 22 min at room temperature to obtain platelets. The platelets were homogenized using a homogenizer (Ultra-Turrax) followed by centrifugation 3 times at 20,000 rpm, 10 min at 4° C.. to obtain a platelet membrane fraction. After protein determination, the membrane fraction was adjusted to 2 mg/ml and preserved in a refrigerator at −80° C.. until using for the binding test.
(2) Binding to PGD2 Receptor
To a binding-reaction solution (50 mM Tris/HCl, pH 7.4, 5 mM MgCl2) (0.2 ml) were added the human platelet membrane fraction (0.1 mg) and 5 nM [^3H]PGD2 (115 Ci/mmol), and the mixture was reacted at 4° C. for 90 min. After the reaction, the mixture was filtered through a glass fiber filter paper and washed several times with cooled physiological saline, then the radioactivity retained on the filter paper was measured. The specific-binding ratio was calculated by subtracting the non-specific binding ratio which is the radioactivity similarly measured in the presence of 10 μM PGD2 from the total binding.

[6] = 1 mg/kg orally 1 hour before antigen challenge
[7] = 10 mg/kg orally 1 hour before antigen challenge
[8] = 3 mg/kg orally 2 hours before antigen challenge
[9] = 10 mg/kg orally 2 hours before antigen challenge
[10] = 30 mg/kg orally 1 hour before antigen challenge

- IC50 [1]: > 10 µM
- IC50 [5]: > 10 µM
Structure (SMILES): O=C(O)CCC/C=C\C[C@H]1[C@@H]2CC[C@@H](C2)[C@@H]1NS(=O)(=O)c1ccccc1 [A]
- Log PD200 [2, 6]: 1.29 ± 0.04
- Log PD200 [2, 7]: 1.61 ± 0.09**
- induction of bronchial hyperresponsiveness (in words) [2]: suppressed
- Peak bronchoconstriction [3, 8]: 55.3 ± 6.7 cm H2O
- Peak bronchoconstriction, inhibition % [3, 8]: 7%
- Peak bronchoconstriction [3, 9]: 18.8 ± 3.3 cm H2O
- Peak bronchoconstriction, inhibition % [3, 9]: 68%
- antigen-induced bronchoconstriction (in words) [3]: dramatically suppressed
- Eosinophils, inhibition % [4]: −18%
- Total cells, inhibition % [4]: −18%
- Cell number, Eosinophils [4]: 4.90 ± 0.73 ×10^6 cells/animal
- Cell number, Total cells [4]: 13.78 ± 1.75 ×10^6 cells/animal
- eosinophil infiltration (in words) [4]: did not show any inhibitory actions

Structure (SMILES): CC1(C)[C@H]2C[C@H](C/C=C\CCCC(=O)O)[C@@H](NC(=O)c3csc4ccc(O)cc34)[C@@H]1C2 [Compound B-2]
- Log PD200 [2, 7]: 1.17 ± 0.05
- induction of bronchial hyperresponsiveness (in words) [2]: did not inhibit
- Peak bronchoconstriction [3, 6]: 36.5 ± 18.2 cm H2O
- Peak bronchoconstriction, inhibition % [3, 6]: −20%
- Peak bronchoconstriction [3, 10]: 51.8 ± 16.3 cm H2O
- Peak bronchoconstriction, inhibition % [3, 10]: −71%
- antigen-induced bronchoconstriction (in words) [3]: did not suppress
- Eosinophils, inhibition % [4]: 43%
- Total cells, inhibition % [4]: 45%
- Cell number, Eosinophils [4]: 4.49 ± 0.63 ×10^6 cells/animal
- Cell number, Total cells [4]: 13.01 ± 1.58 ×10^6 cells/animal
- eosinophil infiltration (in words) [4]: significantly suppressed
